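Grown in 96-well plates, cells were treated for 48 hours with each compound at five concentrations. Insufficient inhibition: endpoint recorded as highest concentration tested. GI50 is the concentration that inhibits growth by half. TGI: total growth inhibition.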
Legend:
Test in all cases: growth of human tumour cells (NCI), 48 h
786-0 renal = system: 786-0 renal
A498 renal = system: A498 renal
A549 NSCLC = system: A549 NSCLC
ACHN renal = system: ACHN renal
BT-549 breast = system: BT-549 breast
CAKI-1 renal = system: CAKI-1 renal
CCRF-CEM leukemia = system: CCRF-CEM leukemia
COLO 205 colon = system: COLO 205 colon
DU-145 prostate = system: DU-145 prostate
EKVX NSCLC = system: EKVX NSCLC
HCC-2998 colon = system: HCC-2998 colon
HCT-116 colon = system: HCT-116 colon
HCT-15 colon = system: HCT-15 colon
HL-60(TB) leukemia = system: HL-60(TB) leukemia
HOP-62 NSCLC = system: HOP-62 NSCLC
HOP-92 NSCLC = system: HOP-92 NSCLC
HS 578T breast = system: HS 578T breast
HT29 colon = system: HT29 colon
IGROV1 ovarian = system: IGROV1 ovarian
K-562 leukemia = system: K-562 leukemia
KM12 colon = system: KM12 colon
LOX IMVI melanoma = system: LOX IMVI melanoma
M14 melanoma = system: M14 melanoma
MALME-3M melanoma = system: MALME-3M melanoma
MCF7 breast = system: MCF7 breast
MDA-MB-231 breast = system: MDA-MB-231 breast
MDA-MB-435 = system: MDA-MB-435
MOLT-4 leukemia = system: MOLT-4 leukemia
NCI-H226 lung = system: NCI-H226 lung
NCI-H23 lung = system: NCI-H23 lung
NCI-H460 lung = system: NCI-H460 lung
NCI-H522 lung = system: NCI-H522 lung
NCI/ADR-RES ovarian = system: NCI/ADR-RES ovarian
OVCAR-3 ovarian = system: OVCAR-3 ovarian
OVCAR-4 ovarian = system: OVCAR-4 ovarian
OVCAR-5 ovarian = system: OVCAR-5 ovarian
OVCAR-8 ovarian = system: OVCAR-8 ovarian
PC-3 prostate = system: PC-3 prostate
RPMI-8226 leukemia = system: RPMI-8226 leukemia
RXF 393 renal = system: RXF 393 renal
SF-268 CNS = system: SF-268 CNS
SF-295 CNS = system: SF-295 CNS
SF-539 CNS = system: SF-539 CNS
SK-MEL-2 melanoma = system: SK-MEL-2 melanoma
SK-MEL-28 melanoma = system: SK-MEL-28 melanoma
SK-MEL-5 melanoma = system: SK-MEL-5 melanoma
SK-OV-3 ovarian = system: SK-OV-3 ovarian
SN12C renal = system: SN12C renal
SNB-19 CNS = system: SNB-19 CNS
SNB-75 CNS = system: SNB-75 CNS
SR leukemia = system: SR leukemia
SW-620 colon = system: SW-620 colon
T-47D breast = system: T-47D breast
TK-10 renal = system: TK-10 renal
U251 CNS = system: U251 CNS
UACC-257 melanoma = system: UACC-257 melanoma
UACC-62 melanoma = system: UACC-62 melanoma
UO-31 renal = system: UO-31 renal

In the case of `Cn1cc(-c2csc(-c3c[nH]c4ccc(F)cc34)n2)c2cccnc21`, the GI50 (786-0 renal) is reported as 13.9 µM, the TGI (786-0 renal) is reported as over 68.4 µM and the GI50 (A498 renal) is reported as 18.6 µM. The TGI (A498 renal) was over 100 µM, the GI50 (A549 NSCLC) was 1.09 µM and the TGI (A549 NSCLC) was over 45.4 µM. It also gave a GI50 (ACHN renal) of 8.87 µM, a TGI (ACHN renal) of over 100 µM and a TGI (BT-549 breast) of over 100 µM. For the same compound, the GI50 (CAKI-1 renal) was 1.42 µM, the TGI (CAKI-1 renal) was over 60.8 µM and the GI50 (CCRF-CEM leukemia) was 6.26 µM. The TGI (CCRF-CEM leukemia) was over 100 µM, the GI50 (COLO 205 colon) was 1.22 µM and the TGI (COLO 205 colon) was over 56.4 µM. It also gave a GI50 (DU-145 prostate) of 14.3 µM, a TGI (DU-145 prostate) of over 100 µM and a GI50 (EKVX NSCLC) of 8.87 µM. It also gave a TGI (EKVX NSCLC) of over 100 µM, a GI50 (HCC-2998 colon) of 21.9 µM and a TGI (HCC-2998 colon) of over 100 µM. The GI50 (HCT-116 colon) was 0.729 µM, the TGI (HCT-116 colon) was over 100 µM and the GI50 (HCT-15 colon) was 0.737 µM. It also gave a TGI (HCT-15 colon) of over 100 µM, a GI50 (HL-60(TB) leukemia) of 5.85 µM and a TGI (HL-60(TB) leukemia) of over 100 µM. The GI50 (HOP-62 NSCLC) was 3.11 µM, the TGI (HOP-62 NSCLC) was 35.2 µM and the GI50 (HOP-92 NSCLC) was 4.25 µM. The TGI (HOP-92 NSCLC) was over 48.9 µM, the GI50 (HS 578T breast) was over 56.6 µM and the TGI (HS 578T breast) was over 100 µM. It also gave a GI50 (HT29 colon) of 0.355 µM, a TGI (HT29 colon) of 3.66 µM and a GI50 (IGROV1 ovarian) of 0.804 µM. The TGI (IGROV1 ovarian) was over 39.9 µM, the GI50 (K-562 leukemia) was 0.416 µM and the TGI (K-562 leukemia) was over 100 µM. For the same compound, the GI50 (KM12 colon) was 0.704 µM, the TGI (KM12 colon) was over 100 µM and the GI50 (LOX IMVI melanoma) was 1.45 µM. The TGI (LOX IMVI melanoma) was over 100 µM, the GI50 (M14 melanoma) was 0.787 µM and the TGI (M14 melanoma) was over 100 µM. It also gave a GI50 (MALME-3M melanoma) of 0.236 µM, a TGI (MALME-3M melanoma) of 8.35 µM and a GI50 (MCF7 breast) of 1.69 µM. It also gave a TGI (MCF7 breast) of over 68.4 µM, a GI50 (MDA-MB-231 breast) of 5.79 µM and a TGI (MDA-MB-231 breast) of over 100 µM. For the same compound, the GI50 (MDA-MB-435) was 0.194 µM, the TGI (MDA-MB-435) was 0.586 µM and the GI50 (MOLT-4 leukemia) was 10.6 µM. For the same compound, the TGI (MOLT-4 leukemia) was over 100 µM, the GI50 (NCI-H226 lung) was 5.22 µM and the TGI (NCI-H226 lung) was over 100 µM. The GI50 (NCI-H23 lung) was 11.9 µM, the TGI (NCI-H23 lung) was over 100 µM and the GI50 (NCI-H460 lung) was 0.612 µM. It also gave a TGI (NCI-H460 lung) of over 47.4 µM, a GI50 (NCI-H522 lung) of 0.463 µM and a TGI (NCI-H522 lung) of 14.7 µM. The GI50 (NCI/ADR-RES ovarian) was 0.45 µM, the TGI (NCI/ADR-RES ovarian) was over 100 µM and the GI50 (OVCAR-3 ovarian) was 0.62 µM. It also gave a TGI (OVCAR-3 ovarian) of 17.5 µM, a GI50 (OVCAR-4 ovarian) of 12.3 µM and a TGI (OVCAR-4 ovarian) of over 100 µM. For the same compound, the GI50 (OVCAR-5 ovarian) was over 69.3 µM, the TGI (OVCAR-5 ovarian) was over 100 µM and the GI50 (OVCAR-8 ovarian) was 2.99 µM. It also gave a TGI (OVCAR-8 ovarian) of 47.3 µM, a GI50 (PC-3 prostate) of 6.94 µM and a TGI (PC-3 prostate) of over 60.3 µM. For the same compound, the GI50 (RPMI-8226 leukemia) was over 25.4 µM, the TGI (RPMI-8226 leukemia) was over 100 µM and the GI50 (RXF 393 renal) was 5.65 µM. For the same compound, the TGI (RXF 393 renal) was over 70.5 µM, the GI50 (SF-268 CNS) was 7.73 µM and the TGI (SF-268 CNS) was over 93.6 µM. It also gave a GI50 (SF-295 CNS) of 0.755 µM, a TGI (SF-295 CNS) of 27 µM and a GI50 (SF-539 CNS) of 5.41 µM. For the same compound, the TGI (SF-539 CNS) was over 59.5 µM, the GI50 (SK-MEL-2 melanoma) was 2.78 µM and the TGI (SK-MEL-2 melanoma) was over 29.5 µM. For the same compound, the GI50 (SK-MEL-28 melanoma) was 11.4 µM, the TGI (SK-MEL-28 melanoma) was over 100 µM and the GI50 (SK-MEL-5 melanoma) was 1.27 µM. The TGI (SK-MEL-5 melanoma) was over 45.3 µM, the GI50 (SK-OV-3 ovarian) was 10.5 µM and the TGI (SK-OV-3 ovarian) was over 74.8 µM. The GI50 (SN12C renal) was 10.8 µM, the TGI (SN12C renal) was over 100 µM and the GI50 (SNB-19 CNS) was 6.25 µM. It also gave a TGI (SNB-19 CNS) of 65.7 µM, a GI50 (SNB-75 CNS) of 2.61 µM and a TGI (SNB-75 CNS) of 40 µM. It also gave a GI50 (SR leukemia) of 0.57 µM, a TGI (SR leukemia) of over 81.2 µM and a GI50 (SW-620 colon) of 0.749 µM. It also gave a TGI (SW-620 colon) of over 100 µM, a GI50 (T-47D breast) of 2.33 µM and a TGI (T-47D breast) of over 73.2 µM. It also gave a GI50 (TK-10 renal) of 5.08 µM, a TGI (TK-10 renal) of 31.6 µM and a GI50 (U251 CNS) of 1.52 µM. The TGI (U251 CNS) was 17 µM, the GI50 (UACC-257 melanoma) was 3.81 µM and the TGI (UACC-257 melanoma) was over 100 µM. For the same compound, the GI50 (UACC-62 melanoma) was 1.98 µM, the TGI (UACC-62 melanoma) was over 100 µM and the GI50 (UO-31 renal) was 5.37 µM. The TGI (UO-31 renal) was 32.2 µM.
